Like-named read-outs stand apart in the source and are kept apart here.
Legend:
[1] = target: ACK (Homo sapiens, UniProt Q07912); assay: HTRF kinase enzyme assay; assay type: biochemical; details: ATP at Km
Procedure: (§1) Homogeneous time-resolved fluorescence (HTRF) assay was performed to analyze kinase enzyme activity and compound potency using HTRF ® KinEASE ^TM-TK kit (Cisbio Bioassays, Shanghai, China). Compound SY-707 was serially diluted by 3 folds from 1 mM stock solution in DMSO, and 4 μL of the diluted solution of the compounds was added to 96 μL of reaction buffer (50 mM HEPES, pH 7.0, 0.1 mM Na 3VO 4, 0.01% BAS, 5 mM MgCl 2, 1 mM DTT), then 2.5 μL of 4× compound solution and 5 μL of 2× kinases solution were added to a 384-well plate (OptiPlate-384; PerkinElmer, Wellesley, USA ). The resulted solutions were briefly mixed, centrifuged and incubated for 5 min. Finally, 2.5 μL of 4× ATP/TK peptide (ATP at K m for each kinase) solution was added to the reaction system to initiate the reaction. The enzymatic reaction was carried out for 60-120 min at 23°C, then terminated by addition of 5 μL of detection solution containing TK antibody-cryptate and 5 μL of Streptravidin-XL-665. The mixture was incubated for additional 1 h at 23°C. The fluorescent signals were measured with an EnVision multilabel plate reader (PerkinElmer). IC 50 values of the compounds were calculated using the GraFit software (Version 6.0) and presented as the mean of three independent experiments performed in duplicate.

[2] = target: ALK (Homo sapiens, UniProt Q9UM73); assay: HTRF kinase enzyme assay; assay type: biochemical; details: ATP at Km
Procedure: as §1

[3] = target: FER (Homo sapiens, UniProt P16591); assay: HTRF kinase enzyme assay; assay type: biochemical; details: ATP at Km
Procedure: as §1

[4] = target: FES (Homo sapiens, UniProt P07332); assay: HTRF kinase enzyme assay; assay type: biochemical; details: ATP at Km
Procedure: as §1

[5] = target: IGF1R (Homo sapiens, UniProt P08069); assay: HTRF kinase enzyme assay; assay type: biochemical; details: ATP at Km
Procedure: as §1

[6] = target: IRK (Homo sapiens, UniProt P06213); assay: HTRF kinase enzyme assay; assay type: biochemical; details: ATP at Km
Procedure: as §1

[7] = target: LTK (Homo sapiens, UniProt P29376); assay: HTRF kinase enzyme assay; assay type: biochemical; details: ATP at Km
Procedure: as §1

[8] = target: PYK2 (Homo sapiens, UniProt Q14289); assay: HTRF kinase enzyme assay; assay type: biochemical; details: ATP at Km
Procedure: as §1

[9] = system: A549; assay: Cell proliferation assay (CellTiter-Glo/CellTiter-Blue); assay type: cell-based; details: Homo sapiens, A549, 72 h, read-out: IC50 anti-proliferation
Procedure: (§2) MCF-7, T47D, MDA-MB-231, MIA Paca-2, PANC-1, SW620, HT-29, U87MG, and A549 cell lines were purchased from the Cell Bank of Chinese Academy of Science (Shanghai, China). Cells were cultured in DMEM or RPMI-1640 (Gibco, BRL, USA) supplemented with 10% FBS (HyClone, Logan, USA) and 50 IU penicillin/streptomycin in a humidified atmosphere with 5% CO 2 at 37°C. The effects of SY-707 on cell proliferation were measured using CellTiter-Glo ® or CellTiter-Blue ® Cell Viability Assay kits (Promega, Beijing, China). In brief, cells were seeded in 96-well plates at low destiny with 195 μL of medium per well. The stock solutions of compounds were 3-fold serially diluted with DMSO from 10 mM to 0.3 nM, and 4 μL of solution at each concentration was mixed with 96 μL of serum free medium, then 5 μL of the resulted solution was added to each well. After treatment for 72 h, 25 μL of CellTiter-Glo ® reagent (for adherent cells) or 35 μL CellTiter-Blue ® reagent (for suspension cells) was added to each well, and the resulted mixture was further incubated at room temperature for 10 min or 4 h. The luminescence signals were measured using EnVision ® multilabel plate reader (PerkinElmer), and the fluorescent signals were examined using FlexStation 3 (Molecular Devices, Sunnyvale, USA), and the IC 50 values were calculated using Prism ® software (Version 5.0) and presented as the average of three independent experiments performed in duplicate.

[10] = system: HT29; assay: as above; assay type: cell-based; details: Homo sapiens, HT-29, 72 h, read-out: IC50 anti-proliferation
Procedure: as §2

[11] = system: MDA-MB-231; assay: as above; assay type: cell-based; details: Homo sapiens, MDA-MB-231, 72 h, read-out: IC50 anti-proliferation
Procedure: as §2

[12] = system: PANC-1; assay: as above; assay type: cell-based; details: Homo sapiens, PANC-1, 72 h, read-out: IC50 anti-proliferation
Procedure: as §2

[13] = system: SW620; assay: as above; assay type: cell-based; details: Homo sapiens, SW-620, 72 h, read-out: IC50 anti-proliferation
Procedure: as §2

[14] = system: U87MG; assay: as above; assay type: cell-based; details: Homo sapiens, U-87 MG, 72 h, read-out: IC50 anti-proliferation
Procedure: as §2

[15] = Pharmacokinetic study; assay type: in vivo, SD rats; details: SD, serum, Rat, 5 mg/kg PO; for CL/F: read-out: Cl_F_obs (converted); for MRT inf: read-out: MRT INF_obs
Procedure: […] […] The serum samples were collected by centrifugation and stored at –80 °C. Compound concentrations in the sample serums were further analyzed with an API-4000 LC-MS/MS system (Applied Biosystem, Foster City, USA), and pharmacokinetic parameters ( T 1/2, T max, C max, AUC 0-INF, Cl_F_obs, MRT INF_obs, and F(%)) were calcuated using the WinNonlin software (version 6.2; WinNonlin Professional, Pharsight, USA).

Chain of IGF1R (P08069 31-1367): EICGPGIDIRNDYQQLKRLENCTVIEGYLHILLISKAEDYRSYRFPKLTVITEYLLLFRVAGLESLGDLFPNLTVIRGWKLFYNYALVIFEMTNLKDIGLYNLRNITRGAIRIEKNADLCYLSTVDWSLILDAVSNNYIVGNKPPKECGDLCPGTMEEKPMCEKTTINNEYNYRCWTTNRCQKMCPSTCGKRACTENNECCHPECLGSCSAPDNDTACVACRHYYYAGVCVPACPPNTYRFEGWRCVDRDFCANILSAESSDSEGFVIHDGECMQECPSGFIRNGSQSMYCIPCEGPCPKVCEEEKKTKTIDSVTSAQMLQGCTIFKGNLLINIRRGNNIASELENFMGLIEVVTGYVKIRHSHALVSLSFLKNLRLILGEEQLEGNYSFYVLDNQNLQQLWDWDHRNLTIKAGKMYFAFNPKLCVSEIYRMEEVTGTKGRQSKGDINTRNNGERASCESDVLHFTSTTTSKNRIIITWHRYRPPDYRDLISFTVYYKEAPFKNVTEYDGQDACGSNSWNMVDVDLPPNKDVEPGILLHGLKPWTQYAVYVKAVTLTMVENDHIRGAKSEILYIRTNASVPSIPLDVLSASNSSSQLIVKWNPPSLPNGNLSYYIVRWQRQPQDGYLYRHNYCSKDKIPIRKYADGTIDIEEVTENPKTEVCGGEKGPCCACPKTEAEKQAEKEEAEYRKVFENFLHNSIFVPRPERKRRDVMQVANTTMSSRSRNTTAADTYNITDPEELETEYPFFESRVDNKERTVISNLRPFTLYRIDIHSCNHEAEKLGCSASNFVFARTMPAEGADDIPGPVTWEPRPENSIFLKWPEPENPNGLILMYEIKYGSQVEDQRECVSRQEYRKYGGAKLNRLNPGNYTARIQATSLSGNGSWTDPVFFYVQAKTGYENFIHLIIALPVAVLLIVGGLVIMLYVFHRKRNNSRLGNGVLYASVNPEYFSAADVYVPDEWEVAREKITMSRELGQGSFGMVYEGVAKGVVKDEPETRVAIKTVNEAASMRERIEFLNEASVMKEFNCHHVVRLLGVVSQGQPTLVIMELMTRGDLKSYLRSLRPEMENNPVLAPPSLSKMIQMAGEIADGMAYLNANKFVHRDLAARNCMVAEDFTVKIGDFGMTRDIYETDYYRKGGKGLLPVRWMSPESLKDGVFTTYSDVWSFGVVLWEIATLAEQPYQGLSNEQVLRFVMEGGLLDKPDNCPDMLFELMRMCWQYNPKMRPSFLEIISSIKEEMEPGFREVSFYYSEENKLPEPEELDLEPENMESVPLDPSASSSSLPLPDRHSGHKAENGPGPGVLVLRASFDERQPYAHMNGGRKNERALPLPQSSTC
Chain of ALK (Q9UM73 19-1620): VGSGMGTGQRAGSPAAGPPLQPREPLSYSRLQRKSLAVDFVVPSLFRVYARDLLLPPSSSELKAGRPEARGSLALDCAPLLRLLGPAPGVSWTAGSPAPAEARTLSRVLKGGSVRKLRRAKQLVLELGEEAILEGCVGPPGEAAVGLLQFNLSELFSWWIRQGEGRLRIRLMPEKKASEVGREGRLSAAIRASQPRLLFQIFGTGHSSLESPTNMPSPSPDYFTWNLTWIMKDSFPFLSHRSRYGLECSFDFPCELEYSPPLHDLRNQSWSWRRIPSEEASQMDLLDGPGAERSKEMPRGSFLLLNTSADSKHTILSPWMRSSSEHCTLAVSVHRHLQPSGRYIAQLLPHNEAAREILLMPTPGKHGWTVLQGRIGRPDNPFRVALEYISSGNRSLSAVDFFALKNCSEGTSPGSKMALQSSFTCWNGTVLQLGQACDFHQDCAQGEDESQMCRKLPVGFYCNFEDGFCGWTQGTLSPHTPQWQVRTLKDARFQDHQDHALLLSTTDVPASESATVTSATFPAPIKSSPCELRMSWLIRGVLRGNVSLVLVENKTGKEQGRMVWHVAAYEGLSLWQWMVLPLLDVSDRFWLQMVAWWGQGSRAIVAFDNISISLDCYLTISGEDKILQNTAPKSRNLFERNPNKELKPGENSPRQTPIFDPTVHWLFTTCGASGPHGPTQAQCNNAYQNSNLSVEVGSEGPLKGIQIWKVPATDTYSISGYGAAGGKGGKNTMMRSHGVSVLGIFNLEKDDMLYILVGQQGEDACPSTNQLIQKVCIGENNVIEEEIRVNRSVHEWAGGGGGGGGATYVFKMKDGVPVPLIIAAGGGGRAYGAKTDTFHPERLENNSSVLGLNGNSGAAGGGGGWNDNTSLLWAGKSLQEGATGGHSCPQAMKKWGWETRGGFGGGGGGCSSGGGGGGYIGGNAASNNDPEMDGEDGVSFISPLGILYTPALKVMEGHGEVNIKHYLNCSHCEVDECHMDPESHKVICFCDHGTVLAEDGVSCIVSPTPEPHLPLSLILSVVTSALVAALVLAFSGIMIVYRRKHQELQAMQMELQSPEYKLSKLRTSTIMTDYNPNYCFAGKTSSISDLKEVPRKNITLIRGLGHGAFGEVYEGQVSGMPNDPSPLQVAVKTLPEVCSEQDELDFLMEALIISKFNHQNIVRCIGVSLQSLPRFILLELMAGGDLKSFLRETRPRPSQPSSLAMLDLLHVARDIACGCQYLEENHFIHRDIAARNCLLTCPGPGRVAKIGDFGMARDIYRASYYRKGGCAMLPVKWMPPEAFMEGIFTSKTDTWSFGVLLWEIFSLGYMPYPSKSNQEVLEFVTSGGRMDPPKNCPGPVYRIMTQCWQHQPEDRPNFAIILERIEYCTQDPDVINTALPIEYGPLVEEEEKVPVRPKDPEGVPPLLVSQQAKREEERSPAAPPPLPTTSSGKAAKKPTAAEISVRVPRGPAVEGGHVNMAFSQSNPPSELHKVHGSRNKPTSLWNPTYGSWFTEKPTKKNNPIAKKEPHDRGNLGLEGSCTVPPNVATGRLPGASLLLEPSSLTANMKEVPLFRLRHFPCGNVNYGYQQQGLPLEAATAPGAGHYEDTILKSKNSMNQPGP
Chain of IRK (P06213 28-1382): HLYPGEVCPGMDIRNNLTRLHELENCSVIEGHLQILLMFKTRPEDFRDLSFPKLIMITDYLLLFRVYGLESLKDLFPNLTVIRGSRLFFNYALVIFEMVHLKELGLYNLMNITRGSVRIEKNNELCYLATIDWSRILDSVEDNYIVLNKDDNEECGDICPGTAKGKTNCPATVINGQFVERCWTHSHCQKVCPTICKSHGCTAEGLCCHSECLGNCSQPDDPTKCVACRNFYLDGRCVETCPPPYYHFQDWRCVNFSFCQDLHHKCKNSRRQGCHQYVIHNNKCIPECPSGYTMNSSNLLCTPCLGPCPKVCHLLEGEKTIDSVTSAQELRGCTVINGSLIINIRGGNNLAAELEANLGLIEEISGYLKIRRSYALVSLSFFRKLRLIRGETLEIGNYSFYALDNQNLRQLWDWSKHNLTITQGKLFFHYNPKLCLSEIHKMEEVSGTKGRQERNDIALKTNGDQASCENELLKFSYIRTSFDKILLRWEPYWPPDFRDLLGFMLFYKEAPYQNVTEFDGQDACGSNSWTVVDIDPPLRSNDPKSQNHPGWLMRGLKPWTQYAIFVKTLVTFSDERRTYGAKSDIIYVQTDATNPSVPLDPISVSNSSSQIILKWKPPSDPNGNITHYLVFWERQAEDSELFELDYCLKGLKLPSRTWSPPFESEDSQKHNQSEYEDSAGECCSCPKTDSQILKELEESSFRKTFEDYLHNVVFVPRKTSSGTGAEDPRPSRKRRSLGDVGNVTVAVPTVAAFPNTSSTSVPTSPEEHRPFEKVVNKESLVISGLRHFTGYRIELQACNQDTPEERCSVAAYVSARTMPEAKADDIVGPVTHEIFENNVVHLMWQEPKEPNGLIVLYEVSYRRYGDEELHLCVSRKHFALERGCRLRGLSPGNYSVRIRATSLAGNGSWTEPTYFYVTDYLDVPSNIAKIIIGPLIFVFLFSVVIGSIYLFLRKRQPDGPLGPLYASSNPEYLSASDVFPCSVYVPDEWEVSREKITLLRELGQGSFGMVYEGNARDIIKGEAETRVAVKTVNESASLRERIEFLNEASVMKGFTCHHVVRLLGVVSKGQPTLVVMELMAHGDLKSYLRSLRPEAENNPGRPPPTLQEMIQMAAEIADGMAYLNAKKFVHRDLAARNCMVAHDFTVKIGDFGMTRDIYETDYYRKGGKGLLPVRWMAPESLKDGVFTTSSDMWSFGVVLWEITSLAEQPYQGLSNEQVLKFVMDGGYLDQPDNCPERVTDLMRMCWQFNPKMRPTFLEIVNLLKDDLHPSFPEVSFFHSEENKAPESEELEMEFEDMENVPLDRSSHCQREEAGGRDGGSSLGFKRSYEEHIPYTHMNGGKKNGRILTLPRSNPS
Chain of LTK (P29376 17-864): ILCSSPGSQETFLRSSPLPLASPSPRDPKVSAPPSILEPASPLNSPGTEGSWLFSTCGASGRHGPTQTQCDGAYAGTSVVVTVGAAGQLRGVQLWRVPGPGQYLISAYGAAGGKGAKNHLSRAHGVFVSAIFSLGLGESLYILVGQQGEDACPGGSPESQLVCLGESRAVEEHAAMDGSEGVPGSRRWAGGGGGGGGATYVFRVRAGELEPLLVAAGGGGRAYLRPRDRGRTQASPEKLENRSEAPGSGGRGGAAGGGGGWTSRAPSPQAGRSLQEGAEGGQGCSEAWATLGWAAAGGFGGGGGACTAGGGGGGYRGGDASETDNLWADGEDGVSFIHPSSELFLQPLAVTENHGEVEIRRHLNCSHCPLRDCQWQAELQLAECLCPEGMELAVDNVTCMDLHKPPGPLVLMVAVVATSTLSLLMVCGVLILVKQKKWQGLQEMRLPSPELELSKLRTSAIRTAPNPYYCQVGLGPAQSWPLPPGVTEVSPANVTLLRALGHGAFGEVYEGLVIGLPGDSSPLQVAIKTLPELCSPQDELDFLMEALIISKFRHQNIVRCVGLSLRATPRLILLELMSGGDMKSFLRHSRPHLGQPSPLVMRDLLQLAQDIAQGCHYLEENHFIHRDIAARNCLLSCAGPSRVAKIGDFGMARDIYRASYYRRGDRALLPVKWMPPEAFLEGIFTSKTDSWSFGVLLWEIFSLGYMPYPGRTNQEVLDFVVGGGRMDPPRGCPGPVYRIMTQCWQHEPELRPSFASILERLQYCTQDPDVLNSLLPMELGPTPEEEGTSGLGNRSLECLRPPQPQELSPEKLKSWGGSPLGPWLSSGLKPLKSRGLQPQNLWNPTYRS

**Q.** With COc1cc(N2CCC(N3CCN(C)CC3)CC2)ccc1Nc1nc2c(c(Nc3ccccc3S(=O)(=O)NC(C)C)n1)CCN2 [SY-707, N-isopropyl-2-((2-((2-methoxy-4-(4-(4-methylpiperazin-1-yl)piperidin-1-yl)phenyl)amino)-6,7-dihydro-5H-pyrrolo[2,3-d]pyrimidin-4-yl)amino)benzenesulfonamide] as the compound, how does the IC50 [1] read?
**A.** 28.7 ± 3.5 nM

**Q.** What about the IC50 [2] of the same compound?
**A.** 2.4 nM

**Q.** And the IC50 [3]?
**A.** 52.3 ± 2.3 nM

**Q.** And the IC50 [4]?
**A.** 81.8 ± 19 nM

**Q.** And the IC50 [5]?
**A.** 10.6 ± 0.58 nM

**Q.** And the IC50 [6]?
**A.** 7.9 ± 0.3 nM

**Q.** And the IC50 [7]?
**A.** 1.9 ± 0.18 nM

**Q.** What about the IC50 [8] of the same compound?
**A.** 2.4 ± 0.8 nM

**Q.** And the IC50 [9]?
**A.** 5700 nM

**Q.** And the IC50 [10]?
**A.** 600 nM

**Q.** And the IC50 [11]?
**A.** 1900 nM

**Q.** And the IC50 [12]?
**A.** 1200 nM

**Q.** And the IC50 [13]?
**A.** 810 nM

**Q.** What about the IC50 [14] of the same compound?
**A.** > 10000 nM

**Q.** And the AUC(0-inf) ([15]; Female)?
**A.** 8590 ng·h/mL

**Q.** What about the Cmax ([15]; Female) of the same compound?
**A.** 639 ng/mL

**Q.** And the Tmax ([15]; Female)?
**A.** 4.33 h

**Q.** What about the bioavailability ([15]; Female) of the same compound?
**A.** 33.2%

**Q.** What about the half-life ([15]; Female) of the same compound?
**A.** 11.2 h

**Q.** What about the CL/F ([15]; Female) of the same compound?
**A.** 9.77 mL/min/kg

**Q.** What about the MRT inf ([15]; Female) of the same compound?
**A.** 13.8 h

**Q.** What about the AUC(0-inf) ([15]; Male) of the same compound?
**A.** 13300 ng·h/mL

**Q.** And the Cmax ([15]; Male)?
**A.** 909 ng/mL

**Q.** What about the Tmax ([15]; Male) of the same compound?
**A.** 3.33 h

**Q.** And the bioavailability ([15]; Male)?
**A.** 38.3%

**Q.** And the half-life ([15]; Male)?
**A.** 13 h

**Q.** What about the CL/F ([15]; Male) of the same compound?
**A.** 6.3 mL/min/kg

**Q.** And the MRT inf ([15]; Male)?
**A.** 15.5 h

**Q.** And the AUC(0-inf) ([15]; both sexes, All)?
**A.** 11000 ng·h/mL

**Q.** And the Cmax ([15]; both sexes, All)?
**A.** 774 ng/mL

**Q.** And the Tmax ([15]; both sexes, All)?
**A.** 3.83 h

**Q.** What about the bioavailability ([15]; both sexes, All) of the same compound?
**A.** 36.2%

**Q.** And the half-life ([15]; both sexes, All)?
**A.** 12.1 h

**Q.** And the CL/F ([15]; both sexes, All)?
**A.** 8.03 mL/min/kg

**Q.** What about the MRT inf ([15]; both sexes, All) of the same compound?
**A.** 14.7 h

Reference: publication PMC9909315, “SY-707, an ALK/FAK/IGF1R inhibitor, suppresses growth and metastasis of breast cancer cells” (Acta Biochimica et Biophysica Sinica, 2022)
